Data from the METLIN SMRT retention time set (Domingo-Almenara et al. 2019).

Assay: gradient 5% acetonitrile 3 min, to 50% in 2 min, to 85% in 15 min, held 3 min, 100 µL/min
Conditions: column: Zorbax Extend-C18 2.1 x 50 mm; eluents: water / acetonitrile, 0.1% formic acid
Procedure, shortened: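 Retention times come from adduct peaks that were picked computationally and then checked by hand. The standards, pure and pooled in mixtures of ~100 molecules, were run on a Zorbax Extend-C18 column (2.1 × 50 mm, 1.8 μm) at 100 μL/min with water and acetonitrile, each with 0.1% formic acid. Detection was by quadrupole time-of-flight mass spectrometry in positive and negative ionization mode, with a dead volume of 40 μL and a dwell volume of 900 μL.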

Compound	RP-LC retention time
COc1cccc(C(=O)N2C[C@@H]3C[C@H](NC(=O)c4cccnc4)[C@H]2C3)c1OC	619 s
Cc1cccc(NC(=O)N2CCC(CN3CCCC(C)C3)CC2)c1C (centres undefined)	620 s
O=C(NC(C(=O)N1CCCc2ccccc21)c1ccccc1)c1cnccn1 (centres undefined)	932 s
CCN(CC)c1nc(C(=O)N2CCN(c3ccccn3)CC2)nc2nc(C)cc(C)c12	570 s
O=c1ccn(-c2cccc(F)c2)nc1-c1nc(-c2ccccc2)no1	851 s
O=C(/C=C/C(=O)N1CCc2ccccc2C1)N1CCc2ccccc2C1	888 s
COc1ccc(C(=O)N2CCC3(C2)C(=O)Nc2ccccc23)cc1OC (centres undefined)	657 s
CN(C)C1CCCN(Cc2c(F)cccc2Cl)C1=O (centres undefined)	604 s
O=C1CC(c2noc(-c3ccc(F)cc3)n2)CN1c1ccc(F)cc1 (centres undefined)	961 s
CC12CCC(C(=O)NCc3ccccc3)(OC1=O)C2(C)C (centres undefined)	768 s
CCOc1cccc(-c2noc(-c3nn(-c4ccc(OC)cc4)ccc3=O)n2)c1	938 s
CN1C(=O)c2cc(C(=O)N3CCN(c4ncccn4)CC3)nn2CC1(C)C(=O)NC1CCCCC1 (centres undefined)	702 s
COC(=O)c1cnc2nc(C)ccc2c1Nc1cccc(Cl)c1F	704 s
CCN1CCN(Cc2nc(-c3ccc(N4CCCC(C)C4)nc3)no2)CC1 (centres undefined)	610 s
Cc1cccc(-c2noc(C3CCCN3S(=O)(=O)c3ccc(F)c(Cl)c3)n2)c1 (centres undefined)	1220 s
Cn1cnc2ccc(-c3noc(-c4cccc(NC(=O)c5ccco5)c4)n3)cc21	682 s
O=C(CCCOc1ccc(Cl)cc1Cl)Nc1nc(-c2ccc(Cl)cc2)cs1	1300 s
O=C(NCc1cccnc1)c1cc(-c2ccc3c(c2)OCO3)nc2ccccc12	665 s
COc1cccc(CNC(=O)c2nnc(-c3ccc(S(=O)(=O)N4CCC(C)CC4)cc3)o2)c1	1030 s
CSc1cccc(-n2ccc(=O)c(-c3nc(-c4ccccc4)no3)n2)c1	971 s
O=C(C1COc2ccccc2O1)N(CCc1cccs1)Cc1ccco1 (centres undefined)	1020 s
COCC(=O)N1N=C(c2cccc(NS(C)(=O)=O)c2)CC1c1ccccc1F (centres undefined)	718 s
O=C(Cc1csc(Nc2cccc(Cl)c2)n1)NCc1cccnc1	575 s
Cc1cccc(-c2nnc(-c3cc(S(=O)(=O)N(C)C)ccc3Cl)o2)c1	1050 s
CCn1nccc1C(=O)N1CC(Oc2ccc(-c3nc(C)no3)cc2)C1	800 s
CC1CS(=O)(=O)N(c2cccc(C(=O)N3CCN(c4ccccc4F)CC3)c2)C1=O (centres undefined)	790 s

Compound	RP-LC retention time
CN1CCN(S(=O)(=O)c2ccc3nn(Cc4c(F)cccc4Cl)c(=O)n3c2)CC1	642 s
CNC(=O)c1cn2ccnc(-c3ccc(OC)cc3)c2n1	711 s
CCOC(=O)N1CCC2(CC1)N=C(c1ccc(F)cc1)CC(c1cccc(OC)c1O)N2 (centres undefined)	748 s
COc1cc([C@H]2c3cc4c(cc3[C@@H](O)[C@H](CO)[C@H]2C(=O)N2CCCc3ccccc32)OCO4)cc(OC)c1OC	734 s
CCc1nc2cc(-c3noc(Cc4cc(OC)cc(OC)c4)n3)ccc2o1	1080 s
CC(C)c1ccc(NC(=O)C2CCN(S(C)(=O)=O)c3ccccc3O2)cc1 (centres undefined)	930 s
c1ccc(-c2cn3c(n2)SCC3)cc1	549 s
CC(C)(C)NC(=O)N1CCN(c2cc(-c3cccc(F)c3)ncn2)CC1	669 s
Cc1ccccc1-c1nc(-c2ccc3c(c2)oc(=O)n3C)no1	1110 s
CCc1ccccc1NC(=O)N1CC(Cc2nncn2C(C)C)C1	646 s
Cc1ccccc1Cn1nc2c(S(=O)(=O)N3CCOCC3)cccn2c1=O	794 s
Cc1nn(C)c(C)c1C(=O)N1CC(n2cc(COc3ccc(F)cc3)nn2)C1	712 s
Cc1ccc(CNC(=O)C2(C)CN(S(C)(=O)=O)CC(=O)N2c2ccc(F)cc2F)cc1 (centres undefined)	814 s
O=C(Cn1nc(C(=O)N2CCCC2)c2ccccc21)N1CCN(c2cccc(Cl)c2)CC1	942 s
Cc1cc(OCC(=O)NCc2ccco2)nc(-c2ccc(Cl)cc2)n1	1000 s
CCOC(=O)c1[nH]c(C)c(C(=O)C(C)N(Cc2ccc(F)cc2)C(=O)C(C)C)c1C (centres undefined)	950 s
CNC(=O)c1n[nH]c2c1CCCCCC2	685 s
Cc1nc(-c2ccc(N3CCN(C(=O)c4ccc(F)c(F)c4)CC3)nc2)sc1C	976 s
Cc1ccc(-c2nnc(-c3nc(NCc4cccnc4)c4ccccc4n3)o2)cc1	676 s
c1ccc(C(NCCNC(c2ccccc2)c2ccccc2)c2ccccc2)cc1	849 s
Cc1nc(CC(=O)Nc2nc(-c3ccc(Br)cc3)cs2)cs1	996 s
Cc1cc(N2C(=O)CCS2(=O)=O)cc(C)c1S(=O)(=O)N1CCC(C(N)=O)CC1	648 s
Cc1cc2[nH]c(C(=O)Nc3ccc(Cl)cc3F)c(CN3CCOCC3)c2s1	759 s
Cc1ccn2cc(-c3ccc(NS(=O)(=O)c4cc(C)c(C)cc4C)cc3)nc2n1	712 s
CN(C)c1ncncc1N1CCC(C(=O)NCC2CCCO2)CC1 (centres undefined)	566 s

Next, values leading:

RP-LC retention time	Compound
732 s	CCOc1ccc(NC(=O)Cn2c(N3CCOCC3)nc(CC)cc2=O)cc1
772 s	O=C(NCC1CCN(C(=O)Nc2ccc(F)cc2)CC1)Oc1ccccc1
791 s	CCOCCOC(=O)C1=C(C)NC2=C(C(=O)CC(C)(C)C2)C1c1cccc(OC)c1OC (centres undefined)
916 s	Cc1ccc(NC(=O)N2CCCCC2)cc1[N+](=O)[O-]
1050 s	CCc1nc(-c2csc(S(=O)(=O)N3CCCC(C(=O)NCc4ccccc4Cl)C3)c2)no1 (centres undefined)
612 s	COc1ccc(N2C(=O)CCS2(=O)=O)cc1S(=O)(=O)N1CCC(C(N)=O)CC1
634 s	CC1CCN(CCNC(=O)c2nnc(-c3ccc(S(=O)(=O)N4CCCC4)cc3)o2)CC1
678 s	COc1cc(=O)c(C(=O)Nc2ccc(S(N)(=O)=O)cc2)nn1-c1ccc(F)cc1
966 s	COc1ccc2nc(NC(=O)Nc3ccccc3)sc2c1
856 s	CC1(C(=O)NCc2ccccc2)CN(S(C)(=O)=O)CC(=O)N1CCCc1ccccc1 (centres undefined)
771 s	Cc1ccc(-c2noc(-c3ccccc3S(=O)(=O)NCCN3CCC(C)CC3)n2)cc1
606 s	Cc1ccc(NC(=O)N2CCc3nc[nH]c3C2)cc1C
644 s	CCC(=O)Nc1ccc(CCc2nc3ccc(C(=O)NCc4ccc5c(c4)OCO5)cc3[nH]2)cc1
814 s	COc1cc(-c2ccc(Cl)cc2)nc2ccc(NC(=O)c3cccs3)cc12
774 s	COCCn1cc(CCNC(=O)Nc2cccc(F)c2C)c2cccnc21
680 s	CCNc1nc(NCC)n2c(SCC(=O)c3cccc(Br)c3)nnc2n1
1120 s	CCN(CC)c1nc2cc(C(=O)OC)ccc2c(=O)n1-c1cccc(F)c1
854 s	Cn1nc(-c2ccccc2)cc1C(=O)Nc1nc2c(s1)CN(S(=O)(=O)C1CC1)CC2
646 s	CS(=O)(=O)N1CCC(C(=O)Nc2nnc(-c3ccc4c(c3)OCCO4)o2)CC1

RP-LC retention time	Compound
753 s	CC1=C(c2ccccc2)S(=O)(=O)N=C1N1CCC(NC(=O)C2CCC2)CC1
640 s	O=C(Nc1cccc(Br)c1)C1CCN(C(=O)c2cc(-c3ccncc3)n[nH]2)CC1
563 s	CCOCCCNC(=O)Nc1ccc2nc3n(c(=O)c2c1)CCCC3
626 s	Cc1csc(NC(=O)c2ccc(N3CCCC3)nn2)n1
614 s	COc1cc(NC(=O)c2cn3c(n2)CCCC3)cc(OC)c1
948 s	CC1(C(=O)NCc2cccc(F)c2)CCCN(S(=O)(=O)c2ccc(F)cc2)C1 (centres undefined)
713 s	Cc1ccc(NS(=O)(=O)c2cc(-c3[nH]ncc3C(=O)N3CCOCC3)oc2C)cc1C
1150 s	Cc1ccc(NC(=O)Cn2nc(N3CCCC(C)C3)c3ccccc3c2=O)c(C)c1 (centres undefined)
760 s	COCCOc1ccc2c(n1)CCN(C(=O)NC1CCCCC1)C2
1060 s	CCCS(=O)(=O)c1nc2ccc(NS(=O)(=O)c3ccc4c(c3)CCCC4)cc2s1
772 s	CCOC(=O)CNC(=O)NCc1cccn1Cc1ccc(F)cc1
624 s	Cc1nnc(NC(=O)C2CCN(C(=O)c3ccccc3F)CC2)s1
657 s	CCOc1ccc(NC(=O)c2cn3c4c(ccc(Cl)c4c2=O)OCC3)cc1
817 s	COc1cccc(N2CC(C(=O)Nc3nnc(-c4csc(C)n4)o3)CC2=O)c1 (centres undefined)
617 s	Cc1cc(C)cc(NC(=O)NCC2(N3CCOCC3)CCOC2)c1 (centres undefined)
896 s	O=C(Nc1ccc2c(c1)OCCO2)N1CCCC1c1nc(CCOCC2CCCC2)no1 (centres undefined)
646 s	O=C(Nc1cccc(F)c1)c1nnc(CCCC(=O)N2CCN(c3ccccn3)CC2)s1
690 s	O=C([C@@H]1C[C@H](F)CN1C(=O)Nc1ccc(F)cc1)N1CCCCC1
739 s	COC(=O)c1cc(OCC(=O)NCc2ccc3c(c2)OCO3)c2ccccc2n1
